Experimental data: patent publication US20260256920A1, “SELECTIVE HISTONE DEACETYLASE 3 (HDAC3) DERADERS AND METHODS OF USE THEREOF” (Dana-Farber Cancer Institute, Inc., priority 2022, published 2026)

Experiments:
[1] = molecular target: T1, VHL (Homo sapiens, UniProt P40337); test: Cellular VHL engagement assay (BRD4BD2-GFP with mCherry reporter cells); format: cell-based; conditions: cells stably expressing BRD4BD2-GFP with mCherry reporter, co-treated with 250 nM BRD4 degrader, 5 h
T1 construct: Cells stably expressing the BRD4BD2-GFP with mCherry reporter were seeded; endogenous in cells; host or cells: unnamed cells stably expressing the BRD4BD2-GFP with mCherry reporter
T1 sequence (P40337 whole entry, species assumed): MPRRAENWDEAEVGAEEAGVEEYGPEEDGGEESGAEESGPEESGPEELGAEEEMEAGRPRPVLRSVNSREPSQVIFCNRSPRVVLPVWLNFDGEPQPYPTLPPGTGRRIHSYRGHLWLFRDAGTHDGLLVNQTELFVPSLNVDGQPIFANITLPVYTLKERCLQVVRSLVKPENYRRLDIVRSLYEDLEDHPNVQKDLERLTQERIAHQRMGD
Protocol: Cells stably expressing the BRD4BD2-GFP with mCherry reporter were seeded at a density of 1000-4000 cells/well in 384-well plates with 50 μL per well of FluoroBrite™ DMEM media (Thermo Fisher Scientific™, A18967) supplemented with 2% FBS a day before compound treatment. Compounds 1 and 2, and 250 nM 1 ((2S,4R)-1-(2R)-2-acetamido-3-[[6-[2-[(6S)-4-(4-chlorophenyl)-2,3,9-trimethyl-6H-thieno[3,2-f][1,2,4]triazolo[4,3-a][1,4]diazepin-6-yl]acetamido]hexyl]thio]-3-methylbutanoyl]-4-hydroxy-N-[4-(4-methylthiazol-5-yl)benzyl) pyrrolidinine-2-carboxamide) were dispensed using a D300e Digital Dispenser (HP), normalized to 0.5% DMSO, and incubated with the cells for 5 h. The assay plate was imaged immediately using an Acumen® High Content Imager (TTP Labtech) with 488 nm and 561 nm lasers in a 2 μm×1 μm grid per well format. The resulting images were analyzed using CellProfiler™.
A series of image analysis steps (an ‘image analysis pipeline’) was constructed. […] A background illumination function was calculated for both red and green channels of each well individually and subtracted to correct for illumination variations across the 384-well plate from various sources of error. […] The fraction of GFP-positive cells/mCherry-positive cells in each well was then calculated, and the green and red images were rescaled for visualization. […]

[2] = molecular target: T2, HDAC3 (Homo sapiens, UniProt O15379); test: Quantitative LC-MS proteomics of relative protein abundance in treated Kelly cells; format: cell-based; conditions: 1 μM compound, 5 hr, compared to DMSO control
T2 construct: endogenous in cells; host or cells: Kelly cells
T2 sequence (O15379 whole entry): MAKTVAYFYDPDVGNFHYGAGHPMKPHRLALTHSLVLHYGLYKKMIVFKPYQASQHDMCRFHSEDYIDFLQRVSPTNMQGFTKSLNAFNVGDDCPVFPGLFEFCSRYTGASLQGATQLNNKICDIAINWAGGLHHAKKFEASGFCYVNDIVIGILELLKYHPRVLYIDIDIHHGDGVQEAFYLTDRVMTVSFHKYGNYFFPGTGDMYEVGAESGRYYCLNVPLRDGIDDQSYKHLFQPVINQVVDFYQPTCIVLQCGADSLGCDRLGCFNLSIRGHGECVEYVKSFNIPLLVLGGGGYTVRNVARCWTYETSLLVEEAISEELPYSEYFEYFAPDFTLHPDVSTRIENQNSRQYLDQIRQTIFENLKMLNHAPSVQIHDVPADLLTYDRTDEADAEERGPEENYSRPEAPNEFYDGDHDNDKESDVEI
T2 sequence (Q9Y618 389-480 partner limits assumed): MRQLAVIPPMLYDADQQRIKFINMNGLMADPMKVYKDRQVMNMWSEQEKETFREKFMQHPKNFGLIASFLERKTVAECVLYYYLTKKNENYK
Protocol: Kelly cells were treated with DMSO or 1 μM of compound 2 or 3 for 5 hr and cells were harvested by centrifugation at 4° C. before snap freezing in liquid nitrogen. Cell lysis was performed by the addition of Urea buffer (8 M Urea, 50 mM NaCl, 50 mM 4-(2-hydroxyethyl)-1-piperazineethanesulfonic acid (EPPS) pH 8.5, Protease and Phosphatase inhibitors) followed by manual homogenization by 20 passes through a 21-gauge (1.25 in. long) needle. Lysate was clarified by centrifugation and protein quantified using bradford (Bio-Rad) assay. 50 μg of protein for each sample was reduced, alkylated and precipitated using methanol/chloroform as described in Donovan et al., eLife 7: e38430 (2018). The resulting precipitated protein was resuspended in 4 M Urea, 50 mM HEPES pH 7.4, buffer for solubilization, followed by dilution to 1 M urea with the addition of 200 mM EPPS, pH 8. Proteins were digested for 12 hours at room temperature with LysC (1:50 ratio), followed by dilution to 0.5 M urea and a second digestion step was performed by addition of trypsin (1:50 ratio) for 6 hours at 37° C. […]
The diaPASEF raw file processing and controlling peptide and protein level false discovery rates, assembling proteins from peptides, and protein quantification from peptides was performed using library free analysis in DIA-NN 1.8 (Demichev et al., Nature Methods 17:41-44 (2020)). […]

| Structure (SMILES) | IC50 [1] [µM] | relative change in HDAC3 protein abundance (degradation and selectivity) [2] |
| --- | --- | --- |
| CCCNNC(=O)/C=C/c1ccc(CN(CCOCCC(=O)N[C@H](C(=O)N2C[C@H](O)C[C@H]2C(=O)N[C@@H](C)c2ccc(-c3scnc3C)cc2)C(C)(C)C)CCc2c[nH]c3ccccc23)cc1 [Compound 1, (2S,4R)-1-((S)-2-(3-(2-((2-(1H-indol-3-yl)ethyl) (4-((E)-3-oxo-3-(2-propylhydrazineyl)prop-1-en-1-yl)benzyl)amino)ethoxy)propanamido)-3,3-dimethylbutanoyl)-4-hydroxy-N—((S)-1-(4-(4-methylthiazol-5-yl)phenyl)ethyl) pyrrolidine-2-carboxamide] | 16.8 |  |
| CCCNNC(=O)/C=C/c1ccc(CN(CCOCCOCCC(=O)N[C@H](C(=O)N2C[C@H](O)C[C@H]2C(=O)N[C@@H](C)c2ccc(-c3scnc3C)cc2)C(C)(C)C)CCc2c[nH]c3ccccc23)cc1 [Compound 2, (2S,4R)-1-((S)-14-(tert-butyl)-1-(1H-indol-3-yl)-12-oxo-3-(4-((E)-3-oxo-3-(2-propylhydrazineyl)prop-1-en-1-yl)benzyl)-6,9-dioxa-3,13-diazapentadecan-15-oyl)-4-hydroxy-N—((S)-1-(4-(4-methylthiazol-5-yl)phenyl)ethyl) pyrrolidine-2-carboxamide] | 6.78 | significant and selective reduction in HDAC3 protein levels |
| CCCNNC(=O)/C=C/c1ccc(CN(CCCCCOc2cc(-c3scnc3C)ccc2CNC(=O)[C@@H]2C[C@@H](O)CN2C(=O)[C@@H](NC(=O)C2(F)CC2)C(C)(C)C)CCc2c[nH]c3ccccc23)cc1 [Compound 3, (2S,4R)—N-(2-((5-((2-(1H-indol-3-yl)ethyl) (4-((E)-3-oxo-3-(2-propylhydrazineyl)prop-1-en-1-yl)benzyl)amino)pentyl)oxy)-4-(4-methylthiazol-5-yl)benzyl)-1-((S)-2-(1-fluorocyclopropane-1-carboxamido)-3,3-dimethylbutanoyl)-4-hydroxypyrrolidine-2-carboxamide] |  | significant and selective reduction in HDAC3 protein levels |
